Molecules are shown by their SMILES.

The target in series [1] is cGMP-dependent 3',5'-cyclic phosphodiesterase (Homo sapiens) (UniProt O00408). In words: Inhibition of human recombinant PDE2A using cAMP as substrate at 10 uM after 30 mins by HTRF method. Background: In TR-FRET formats the signal depends on donor and acceptor labels being close together.
Series [2] in a line: Metabolic stability in Wistar rat liver microsomes incubated for 10 mins prior to NADPH addition measured after 60 mins by LC/MS/MS analysis. It is filed as ADME. As to conditions: read-out: Stability. (Liver microsomes are a subcellular fraction often used to study metabolism.)
Series [3] concerns the target 3',5'-cyclic-AMP phosphodiesterase 4D (Homo sapiens) (UniProt Q08499). Briefly: Inhibition of human recombinant PDE4D using [3H]-cAMP as substrate at 10 uM after 30 mins by two-step radiometric assay.
Series [4] shares this target. In words: Inhibition of human recombinant PDE4D using [3H]-cAMP as substrate at 1 uM after 30 mins by two-step radiometric assay.
A short description of series [5]: Metabolic stability in cynomolgus monkey liver microsomes incubated for 10 mins prior to NADPH addition measured after 60 mins by LC/MS/MS analysis. It is filed as ADME, Macaca fascicularis. Conditions: read-out: Stability.
For series [6], the target named is cGMP-inhibited 3',5'-cyclic phosphodiesterase 3A (Homo sapiens) (UniProt Q14432). In words: Inhibition of human recombinant PDE3A using cAMP as substrate at 10 uM after 30 mins by HTRF method.
The target of series [7] is T1, cAMP and cAMP-inhibited cGMP 3',5'-cyclic phosphodiesterase 10A (Rattus norvegicus, UniProt Q9QYJ6).
T1 sequence (Q9QYJ6 whole entry): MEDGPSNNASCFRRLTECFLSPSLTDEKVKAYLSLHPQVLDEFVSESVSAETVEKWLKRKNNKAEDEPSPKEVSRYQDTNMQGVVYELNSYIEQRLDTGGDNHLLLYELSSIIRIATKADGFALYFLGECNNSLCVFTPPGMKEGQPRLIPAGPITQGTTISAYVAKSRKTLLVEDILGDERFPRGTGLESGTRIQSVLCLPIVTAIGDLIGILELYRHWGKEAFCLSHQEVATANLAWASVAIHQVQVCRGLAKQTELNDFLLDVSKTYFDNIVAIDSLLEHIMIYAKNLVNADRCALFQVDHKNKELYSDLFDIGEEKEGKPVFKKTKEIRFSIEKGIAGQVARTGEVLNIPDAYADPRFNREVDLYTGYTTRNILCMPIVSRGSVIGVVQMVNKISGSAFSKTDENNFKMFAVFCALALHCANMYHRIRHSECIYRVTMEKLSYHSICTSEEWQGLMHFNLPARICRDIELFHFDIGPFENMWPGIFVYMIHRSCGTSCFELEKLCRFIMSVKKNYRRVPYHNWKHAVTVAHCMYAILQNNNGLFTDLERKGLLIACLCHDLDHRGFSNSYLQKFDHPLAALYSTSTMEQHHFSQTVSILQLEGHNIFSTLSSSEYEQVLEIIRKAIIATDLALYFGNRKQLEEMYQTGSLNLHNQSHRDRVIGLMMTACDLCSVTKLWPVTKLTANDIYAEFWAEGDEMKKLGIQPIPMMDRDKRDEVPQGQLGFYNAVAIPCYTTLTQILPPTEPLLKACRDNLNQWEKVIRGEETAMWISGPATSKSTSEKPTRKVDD
Briefly: Inhibition of rat recombinant GST-tagged PDE10A using [3H]-cAMP as substrate by scintillation proximity assay. On the technique in general: Scintillation proximity formats need no separation of bound from free tracer.

Series [8] addresses cGMP-specific 3',5'-cyclic phosphodiesterase (Homo sapiens) (UniProt O76074). In words: Inhibition of human recombinant PDE5A using […] as substrate at 1 uM after 30 mins by scintillation proximity assay.
For series [9], the target named is Dual 3',5'-cyclic-AMP and -GMP phosphodiesterase 11A (Homo sapiens) (UniProt Q9HCR9). In words: Inhibition of human recombinant PDE11A using [3H]-cAMP as substrate at 1 uM after 30 mins by two-step radiometric assay.
Series [10] concerns the target cGMP-specific 3',5'-cyclic phosphodiesterase (Homo sapiens) (UniProt O76074). Briefly: Inhibition of human recombinant PDE5A using […] as substrate at 10 uM after 30 mins by scintillation proximity assay.
In series [11] the target is cGMP-dependent 3',5'-cyclic phosphodiesterase (Homo sapiens) (UniProt O00408). In words: Inhibition of human recombinant PDE2A using cAMP as substrate at 1 uM after 30 mins by HTRF method.
A short description of series [12]: Metabolic stability in CD1 mouse liver microsomes incubated for 10 mins prior to NADPH addition measured after 60 mins by LC/MS/MS analysis. As to conditions: read-out: Stability. It is filed as ADME.
In series [13] the target is Dual 3',5'-cyclic-AMP and -GMP phosphodiesterase 11A (Homo sapiens) (UniProt Q9HCR9). Briefly: Inhibition of human recombinant PDE11A using [3H]-cAMP as substrate at 10 uM after 30 mins by two-step radiometric assay.
In series [14] the target is cGMP-inhibited 3',5'-cyclic phosphodiesterase 3A (Homo sapiens) (UniProt Q14432). Briefly: Inhibition of human recombinant PDE3A using cAMP as substrate at 1 uM after 30 mins by HTRF method.
Series [15] addresses T2, cAMP and cAMP-inhibited cGMP 3',5'-cyclic phosphodiesterase 10A (Homo sapiens, UniProt Q9Y233). Briefly: Inhibition of human recombinant GST-tagged PDE10A using [3H]-cAMP as substrate after 30 mins by scintillation proximity assay.
Series [16] in a line: Metabolic stability in human liver microsomes incubated for 10 mins prior to NADPH addition measured after 60 mins by LC/MS/MS analysis. It is filed as ADME. As to conditions: read-out: Stability.
Series [17] addresses T2, cAMP and cAMP-inhibited cGMP 3',5'-cyclic phosphodiesterase 10A. Briefly: Inhibition of human recombinant GST-tagged PDE10A using [3H]-cAMP as substrate at 1 uM after 30 mins by scintillation proximity assay.
Series [18] can be described thus: Metabolic stability in Beagle dog liver microsomes incubated for 10 mins prior to NADPH addition measured after 60 mins by LC/MS/MS analysis. The series is classed as ADME, Canis lupus familiaris. Conditions: read-out: Stability.
Series [19] has as its target High affinity 3',5'-cyclic-AMP phosphodiesterase 7A (Homo sapiens) (UniProt Q13946). Briefly: Inhibition of human recombinant PDE7A using [3H]-cAMP as substrate at 1 uM after 30 mins by two-step radiometric assay.
Series [20] shares this target. In words: Inhibition of human recombinant PDE7A using [3H]-cAMP as substrate at 10 uM after 30 mins by two-step radiometric assay.

Chain of Dual 3',5'-cyclic-AMP and -GMP phosphodiesterase 11A (Homo sapiens) (Q9HCR9 whole entry, looked up): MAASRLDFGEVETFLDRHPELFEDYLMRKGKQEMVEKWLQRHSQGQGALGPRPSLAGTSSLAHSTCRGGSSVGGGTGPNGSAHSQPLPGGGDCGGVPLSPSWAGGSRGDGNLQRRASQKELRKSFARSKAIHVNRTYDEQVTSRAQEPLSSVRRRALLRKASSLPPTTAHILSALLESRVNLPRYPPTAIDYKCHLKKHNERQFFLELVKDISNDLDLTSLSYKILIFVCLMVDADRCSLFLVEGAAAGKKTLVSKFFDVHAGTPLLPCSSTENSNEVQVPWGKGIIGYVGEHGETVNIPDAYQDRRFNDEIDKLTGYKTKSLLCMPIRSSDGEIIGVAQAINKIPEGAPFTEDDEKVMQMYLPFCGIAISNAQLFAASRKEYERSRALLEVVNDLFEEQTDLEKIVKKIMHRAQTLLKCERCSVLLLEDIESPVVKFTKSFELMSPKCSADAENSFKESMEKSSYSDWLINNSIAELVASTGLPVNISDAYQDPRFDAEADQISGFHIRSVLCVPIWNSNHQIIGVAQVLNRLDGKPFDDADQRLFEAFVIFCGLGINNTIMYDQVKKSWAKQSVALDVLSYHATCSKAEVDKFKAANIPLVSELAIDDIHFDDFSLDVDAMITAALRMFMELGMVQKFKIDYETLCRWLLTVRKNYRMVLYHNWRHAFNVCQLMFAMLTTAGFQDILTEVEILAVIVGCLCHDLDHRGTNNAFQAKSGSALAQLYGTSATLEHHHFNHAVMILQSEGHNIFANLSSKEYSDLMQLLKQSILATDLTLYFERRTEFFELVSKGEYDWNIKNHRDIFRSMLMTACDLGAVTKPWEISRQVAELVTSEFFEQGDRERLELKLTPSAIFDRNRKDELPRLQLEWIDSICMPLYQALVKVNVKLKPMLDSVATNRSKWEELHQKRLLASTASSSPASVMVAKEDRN
Chain of cGMP-inhibited 3',5'-cyclic phosphodiesterase 3A (Homo sapiens) (Q14432 whole entry): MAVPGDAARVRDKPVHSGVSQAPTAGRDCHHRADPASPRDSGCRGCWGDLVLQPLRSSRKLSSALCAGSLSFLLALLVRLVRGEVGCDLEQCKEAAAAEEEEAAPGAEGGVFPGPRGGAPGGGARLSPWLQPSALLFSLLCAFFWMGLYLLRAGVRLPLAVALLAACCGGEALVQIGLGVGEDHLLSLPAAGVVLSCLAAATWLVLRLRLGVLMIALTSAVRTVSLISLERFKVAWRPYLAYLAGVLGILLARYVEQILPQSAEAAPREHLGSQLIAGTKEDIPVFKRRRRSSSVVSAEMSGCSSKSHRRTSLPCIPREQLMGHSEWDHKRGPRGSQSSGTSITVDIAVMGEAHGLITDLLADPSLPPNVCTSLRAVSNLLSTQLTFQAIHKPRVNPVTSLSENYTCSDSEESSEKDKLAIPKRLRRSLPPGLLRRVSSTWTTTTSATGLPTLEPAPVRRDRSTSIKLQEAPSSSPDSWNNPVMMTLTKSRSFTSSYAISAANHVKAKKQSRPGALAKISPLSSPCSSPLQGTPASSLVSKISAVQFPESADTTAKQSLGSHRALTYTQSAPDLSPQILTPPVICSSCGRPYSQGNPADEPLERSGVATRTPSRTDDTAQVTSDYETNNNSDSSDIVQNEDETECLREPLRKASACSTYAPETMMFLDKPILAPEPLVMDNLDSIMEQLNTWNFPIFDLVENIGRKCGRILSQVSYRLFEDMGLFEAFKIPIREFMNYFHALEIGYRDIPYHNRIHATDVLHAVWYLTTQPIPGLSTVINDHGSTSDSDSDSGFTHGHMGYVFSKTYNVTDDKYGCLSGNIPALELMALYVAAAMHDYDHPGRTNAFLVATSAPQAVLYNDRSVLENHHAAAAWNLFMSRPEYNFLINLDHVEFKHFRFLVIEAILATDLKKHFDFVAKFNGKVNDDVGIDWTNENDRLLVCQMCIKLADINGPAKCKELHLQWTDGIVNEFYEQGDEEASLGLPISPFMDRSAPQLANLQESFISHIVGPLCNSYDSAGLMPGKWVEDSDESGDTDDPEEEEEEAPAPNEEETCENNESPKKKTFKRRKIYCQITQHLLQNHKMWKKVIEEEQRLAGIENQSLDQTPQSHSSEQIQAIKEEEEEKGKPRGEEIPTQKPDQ
Chain of High affinity 3',5'-cyclic-AMP phosphodiesterase 7A (Homo sapiens) (Q13946 whole entry): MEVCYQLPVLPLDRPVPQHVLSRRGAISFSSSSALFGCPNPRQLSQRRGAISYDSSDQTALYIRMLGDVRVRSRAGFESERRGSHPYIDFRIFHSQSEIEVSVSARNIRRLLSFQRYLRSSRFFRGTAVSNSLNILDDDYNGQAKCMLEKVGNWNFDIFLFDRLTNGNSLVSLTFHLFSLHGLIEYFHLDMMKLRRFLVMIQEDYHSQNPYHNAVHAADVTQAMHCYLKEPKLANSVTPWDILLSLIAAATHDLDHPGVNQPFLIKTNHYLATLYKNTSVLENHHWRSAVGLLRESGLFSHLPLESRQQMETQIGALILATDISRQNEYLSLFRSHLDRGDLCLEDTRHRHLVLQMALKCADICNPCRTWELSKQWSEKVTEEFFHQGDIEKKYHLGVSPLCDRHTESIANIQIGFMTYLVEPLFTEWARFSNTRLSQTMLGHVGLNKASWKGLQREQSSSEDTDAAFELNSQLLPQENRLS
Chain of 3',5'-cyclic-AMP phosphodiesterase 4D (Homo sapiens) (Q08499 whole entry): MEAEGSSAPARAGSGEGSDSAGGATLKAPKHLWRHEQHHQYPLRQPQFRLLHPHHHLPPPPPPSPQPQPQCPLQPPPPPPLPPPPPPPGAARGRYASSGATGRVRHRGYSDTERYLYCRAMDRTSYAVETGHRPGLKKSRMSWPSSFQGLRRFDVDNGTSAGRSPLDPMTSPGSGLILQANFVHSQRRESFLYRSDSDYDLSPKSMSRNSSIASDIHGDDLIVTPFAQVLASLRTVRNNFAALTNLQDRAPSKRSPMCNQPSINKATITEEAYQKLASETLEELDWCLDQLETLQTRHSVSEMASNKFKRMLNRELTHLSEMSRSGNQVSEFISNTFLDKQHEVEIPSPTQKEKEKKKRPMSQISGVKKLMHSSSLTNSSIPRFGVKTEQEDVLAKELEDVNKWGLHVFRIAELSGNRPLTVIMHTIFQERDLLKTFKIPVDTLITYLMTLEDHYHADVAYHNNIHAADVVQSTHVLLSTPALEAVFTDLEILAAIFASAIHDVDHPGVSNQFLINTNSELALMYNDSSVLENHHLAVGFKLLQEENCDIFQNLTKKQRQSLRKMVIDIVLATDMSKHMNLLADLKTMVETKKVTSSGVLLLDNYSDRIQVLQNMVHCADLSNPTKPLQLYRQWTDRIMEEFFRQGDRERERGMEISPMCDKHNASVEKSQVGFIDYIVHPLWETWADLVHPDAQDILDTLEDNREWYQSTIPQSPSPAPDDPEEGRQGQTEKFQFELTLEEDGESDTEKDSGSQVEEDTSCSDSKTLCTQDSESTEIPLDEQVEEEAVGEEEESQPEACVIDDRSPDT
T2 sequence (Q9Y233 whole entry): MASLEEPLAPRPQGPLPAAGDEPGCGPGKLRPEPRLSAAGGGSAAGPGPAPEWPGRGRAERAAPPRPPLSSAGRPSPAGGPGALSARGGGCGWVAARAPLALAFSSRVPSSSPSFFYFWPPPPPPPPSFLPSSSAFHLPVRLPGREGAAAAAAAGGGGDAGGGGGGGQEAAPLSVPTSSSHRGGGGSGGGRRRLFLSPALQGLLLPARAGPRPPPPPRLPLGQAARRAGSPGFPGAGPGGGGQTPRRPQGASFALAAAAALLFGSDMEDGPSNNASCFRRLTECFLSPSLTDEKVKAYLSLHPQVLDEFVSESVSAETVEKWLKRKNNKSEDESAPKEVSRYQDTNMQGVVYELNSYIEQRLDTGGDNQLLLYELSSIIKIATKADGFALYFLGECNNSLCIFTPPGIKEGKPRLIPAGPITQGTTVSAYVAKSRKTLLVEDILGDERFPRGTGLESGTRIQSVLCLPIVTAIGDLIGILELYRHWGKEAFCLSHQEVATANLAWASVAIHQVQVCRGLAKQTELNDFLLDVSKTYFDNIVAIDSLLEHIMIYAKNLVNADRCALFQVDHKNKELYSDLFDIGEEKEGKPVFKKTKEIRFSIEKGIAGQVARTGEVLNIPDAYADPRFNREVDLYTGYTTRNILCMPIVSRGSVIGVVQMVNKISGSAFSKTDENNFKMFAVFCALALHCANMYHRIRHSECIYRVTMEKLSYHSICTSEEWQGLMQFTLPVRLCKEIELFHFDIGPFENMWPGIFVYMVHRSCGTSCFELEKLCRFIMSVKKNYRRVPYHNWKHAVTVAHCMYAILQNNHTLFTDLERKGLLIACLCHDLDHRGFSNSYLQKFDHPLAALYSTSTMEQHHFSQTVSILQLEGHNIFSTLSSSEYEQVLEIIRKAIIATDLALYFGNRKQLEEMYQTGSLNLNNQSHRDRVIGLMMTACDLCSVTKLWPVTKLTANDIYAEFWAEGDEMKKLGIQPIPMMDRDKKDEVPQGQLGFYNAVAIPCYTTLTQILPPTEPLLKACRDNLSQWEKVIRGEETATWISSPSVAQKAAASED

Take `Cn1cc(-c2ccc(Oc3nccnc3-c3cncnc3)cc2)c2nc3ccccc3cc21`: the inhibition (usually the percentage by which the read-out fell short of the control) in [1] amounted to 14.2%; in series [3] it was 19.5%; in [4], 1.3%; in [6], 9.4%; in series [8] it was 9.4%; in series [9], 3.3%. The inhibition in series [10] turned out to be 17.3%; in series [11], 8.9%; in series [13] it was 21.8%; in [14], 0.3%; in [17] it was 94.8%; in series [19], 6%. The inhibition in series [20] came out at 20.2%. The remaining at 1 h in [2] was found to be 83.1%; in series [5], 68.3%; in [12], 76.1%; in series [16] it was 85.2%; in series [18], 77%. For the same molecule, the values for the 50% inhibitory concentration (IC50) in [7] and in series [15] were 31.1 nM and 19.1 nM, respectively.
Take `Cn1cc(C2=CCC(Oc3nccnc3-c3cncnc3)CC2)c2ncccc21` (stereo not given): the remaining at 1 h in [2] turned out to be 5.9%; in [5] it was 0%; in series [12], 8.5%; in series [16] it was 12.2%; in [18] it was 43.3%. Moreover, the values for the IC50 in [7] and in [15] were 552 nM and 136 nM, respectively. Further, the inhibition in series [17] came out at 78%.
With `Cn1cc(C2CCC(Oc3nccnc3-c3cncnc3)CC2)c2ncccc21` (stereo not given), the remaining at 1 h in series [2] amounted to 72.5%; in [5] it was 0%; in [12], 50.3%; in [16], 48.8%; in series [18], 68.6%. Further, the IC50 (in general, the point on the concentration scale where inhibition reaches its midpoint) came to 372 nM in series [7] and 552 nM in series [15]. Moreover, the inhibition in series [17] worked out at 68.9%.
As for `COc1ccc(-c2nccnc2Oc2ccc(-c3cn(C)c4cc5ccccc5nc34)cc2)cc1`, the IC50 is 132 nM in [7] and 153 nM in [15]. The inhibition in series [17] was 72.3%.
For `Cn1cc(-c2ccc(Oc3nccc(-c4cncnc4)n3)cc2)c2nc3ccccc3cc21`, the half-maximal inhibitory concentration (IC50) in series [15] was 128 nM. Also, in series [17], the inhibition is 85.3%.
Regarding `Cn1cc(-c2cccc(Oc3nccc(-c4cncnc4)n3)c2)c2nc3ccccc3cc21`, the inhibition in series [1] was 38.5%; in series [3], 57%; in [4], 4.2%; in series [6] it was 4.8%; in series [8], 1.5%; in series [9] it was 24.4%. Also, the inhibition in [10] was determined as 23.6%; in series [11], 11.4%; in series [13], 43.8%; in series [14] it was 1.1%; in series [17], 95%; in series [19], 4.5%. For the same molecule, the inhibition in series [20] amounted to 14%. Moreover, the remaining at 1 h in [2] was 44.7%; in series [5], 4.5%; in series [12], 3.9%; in [16], 39.8%; in series [18] it was 40.3%. The IC50 in series [7] came out at 90.3 nM; in series [15], 18.2 nM.
Turning to `Cn1cc(-c2cccc(Oc3nccnc3-c3cncnc3)c2)c2nc3ccccc3cc21`, the IC50 in series [7] was 1450 nM; in series [15], 267 nM. Also, the inhibition in series [17] came to 76.3%.
`Cn1cc(-c2cccc(Oc3nccc(-c4cn[nH]c4)n3)c2)c2nc3ccccc3cc21`: the inhibition stood at 40.8% in series [1]; 34.7% in series [3]; 7.9% in series [4]; 27.5% in [6]; 8.2% in series [8]; 27.3% in series [9]. Further, the inhibition in series [10] stood at 19%; in series [11], 16.1%; in [13], 38.5%; in series [14], 4.5%; in [17], 89.3%; in series [19], 16.7%. The inhibition in series [20] was 27.2%. Further, the remaining at 1 h turned out to be 17.3% in [2]; 38.1% in series [5]; 60.4% in series [12]; 75.4% in series [16]; 52% in [18]. The IC50 in [7] was determined as 122 nM; in series [15], 20.9 nM.
With `COc1ccc(-c2ccnc(Oc3cccc(-c4cn(C)c5cc6ccccc6nc45)c3)n2)cc1`, the IC50 in [15] is 103 nM. Further, in series [17], the inhibition is 72.4%.
As to `Cn1cc(-c2ccc(Oc3nccnc3-c3ccc(F)cc3)cc2)c2nc3ccccc3cc21`, the concentration for half-maximal inhibition (IC50) in series [15] worked out at 177 nM. In series [17], the inhibition turned out to be 76.9%.
`Cn1cc(-c2cccc(Oc3nccc(N4CCOCC4)n3)c2)c2nc3ccccc3cc21`: the inhibition was 76.2% in series [1]; 1% in series [3]; 5.6% in series [4]; 21.5% in series [6]; 16% in [8]; 44.6% in series [9]. In addition, the inhibition worked out at 33.3% in series [10]; 15.7% in series [11]; 76.3% in series [13]; 0.3% in series [14]; 93.1% in series [17]; 5.8% in series [19]. Also, in [20], the inhibition amounted to 19.5%. Further, the remaining at 1 h in series [2] came out at 0.4%; in series [5], 0.6%; in [12] it was 0.6%; in series [16], 8.2%; in [18], 1.3%. Besides, the IC50 in series [7] was 167 nM; in series [15] it was 29.2 nM.
On to `Cn1cc(-c2cccc(Oc3nccc(-c4ccc(F)cc4)n3)c2)c2nc3ccccc3cc21`, for which the 50% inhibitory concentration (IC50) in series [15] amounted to 116 nM. Further, the inhibition in series [17] worked out at 76.3%.
Regarding `Cn1cc(-c2ccc(Oc3nccnc3-c3ccncc3)cc2)c2ncc(Cl)cc21`, the inhibition in series [1] came out at 16.1%; in [3], 25.4%; in series [4], 4.1%; in series [6], 9.8%; in series [8], 0.1%; in series [9], 3.1%. Further, the inhibition in [10] came out at 19.3%; in series [11], 11.3%; in [13], 5.7%; in series [14], 0.7%; in series [17], 79.7%; in [19] it was 5.9%. Further, the inhibition in series [20] was determined as 53.1%. For the same molecule, the remaining at 1 h in series [2] is 68%; in [5] it was 40.7%; in series [12], 70.5%; in series [16] it was 77%; in [18], 55.3%. For the same molecule, the figures for the IC50 in [7] and in series [15] were 141 nM and 71 nM, respectively.

The record behind these values is ChEMBL document CHEMBL3352660, “Design, synthesis and pharmacological evaluation of novel polycyclic heteroarene ethers as PDE10A inhibitors: part II” (Bioorg Med Chem Lett, 2014).
